Assay results from patent US4808580A, “Naphtho[1,2-b][1,4]thiazepin-4(5H)-ones and use thereof in treatment of ischemia and blood pressure lowering” (Hoffmann-La Roche Inc., priority 1987, dated 1989).
Structures can show the parent of a compound that is named as a salt.

System: Guinea Pig Ileum
Assay: Guinea pig ileum assay - tonic contraction (K+-induced contraction of longitudinal muscle; calcium channel blocking activity)
Type: cell-based
Details: Cavia porcellus
Experimental: GUINEA PIG ILEUM ASSAY--TONIC CONTRACTION
Male guinea-pigs weighing from 300-400 grams were stunned and bled. The abdomen was opened and 10-15 cm of terminal ileum was carefully removed and cleaned and placed in Tyrode's Solution of the following composition: NaCl (8 g/l), KCl (0.2 g/l), MgCl2 (0.2 g/l.), CaCl2 (0.2 g/l), NaH2 PO4 (0.05 g/l), NaHCO3 (1.0 g/l) and Glucose (1 g/l). The solution was maintained at 37° C. and gassed with 95% O2 and 5% CO2. Portions of the ileum were placed over a glass rod, a shallow incision was made the length of the mesenteric attachment just severing the outer-longitudinal muscle layer. The longitudinal muscle was separated from the underlying circular muscle by gentle dissection (Rang, H. P. Annals of N.Y. Academy of Science Vol. 144, page 756, (1964)). The tissue was fixed at one end to a tissue holder, the other end was connected by a thread to a force transducer and suspended in a muscle bath containing Tyrode's Solution maintained at 37° C. and gassed with 95% O2 and 5% CO2. An initial tension of 500 mg was applied and the tissue allowed to equilibrate for 60 minutes prior to the start of the study. During this period the tissue was washed every 16 minutes. Each preparation, at 16 minute intervals, was challenged with KCl sufficient to yield a bath K^+ concentration of 80 mMK for 2 minutes, then washed with fresh solution. The 16 minute interval between K^+ challenges was maintained throughout the study. Upon stabilization of the responses to the K^+ challenge the test compound (potential calcium entry antagonist) was introduced into the bath 2 minutes prior to and during the 2 minute exposure to K^+ after which the bath was cleared and washed with fresh solution. Logarithmically increasing doses (up to 10^-4 M) of the potential antagonist were administered as the study progressed.
The measure of compound's ability to inhibit the tonic contraction of muscle is a measure of its activity as a calcium channel blocking agent.

Row | IC50 [nM] | Structure (SMILES)
1 | 390 | COc1ccc([C@@H]2Sc3ccc4ccccc4c3N(CCN(C)C)C(=O)[C@@H]2OC(C)=O)cc1 [D, cis-(+)-3-(acetyloxy)-2,3-dihydro-5-[2-(dimethylamino)ethyl]-2-(4-methoxyphenyl)naphtho[2,1-b][1,4]thiazepin-4(5H)-one (E)-2-butendioate]
2 | 450 | COc1ccc([C@@H]2Sc3ccc4ccccc4c3N(CCN(C)C)C(=O)[C@@H]2OC(C)=O)cc1 (relative stereo) [B, cis-rac-3-(acetyloxy)-2,3-dihydro-5-[2-(dimethylamino)ethyl]-2-(4-methoxyphenyl)naphtho[2,1-b][1,4]thiazepin-4(5H)-one (E)-2-butendioate]
3 | 400 | COc1ccc([C@@H]2Sc3ccc4ccccc4c3N(CCN(C)C)C(=O)[C@@H]2O)cc1 (relative stereo) [A, cis-rac-2,3-dihydro-3-hydroxy-5-[2-(dimethylamino)ethyl]-2-(4-methoxyphenyl)naphtho[2,1-b][1,4]thiazepin-4(5H)-one hydrochloride]
4 | 230 | COc1ccc([C@@H]2Sc3ccc4ccccc4c3N(CCN(C)C)C(=O)[C@@H]2O)cc1 [C, cis-(+)-2,3-dihydro-3-hydroxy-5-[2-(dimethylamino)ethyl]-2-(4-methoxyphenyl)naphtho[2,1-b][1,4]thiazepin-4(5H)-one hydrochloride semihydrate]
